In the supplement of paper PMC11451515:

Experiments:
Test in all cases: AUC of viability dose-response curve (% viability x log10 dose units); higher = less sensitive
Settings in all cases: 48 h
NOMO1 = system: NOMO1
Summary of the method: (§1)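 Leukemia cells adapted to each medium were seeded at 500 or 1000 cells/well in 1536-well plates and dosed with library compounds in DMSO at 11 threefold doses from 47 μM to 0.79 nM for 48 h at 37°C. CellTiter-Glo One luminescence was normalised per plate to DMSO and cell-free wells, then fitted with a four-parameter log-logistic model over log10 doses. Area under the curve was taken from this fit by the trapezoidal rule, with curves above full viability scaled and curves failing quality control removed.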

P12-Ichikawa = system: P12-Ichikawa
Summary of the method: as §1

SEM cells = system: SEM cells
Summary of the method: as §1

[1] = RPMI 5 mM glucose + 10% dialyzed FBS

SMILES | AUC of viability dose-response curve (NOMO1; HPLM + 10% dialyzed FBS) | AUC of viability dose-response curve (NOMO1; RPMI 5 mM glucose + 10% FBS) | AUC of viability dose-response curve (NOMO1; [1]) | AUC of viability dose-response curve (P12-Ichikawa; HPLM + 10% dialyzed FBS) | AUC of viability dose-response curve (P12-Ichikawa; RPMI 5 mM glucose + 10% FBS) | AUC of viability dose-response curve (P12-Ichikawa; [1]) | AUC of viability dose-response curve (SEM cells; HPLM + 10% dialyzed FBS) | AUC of viability dose-response curve (SEM cells; RPMI 5 mM glucose + 10% FBS) | AUC of viability dose-response curve (SEM cells; [1])
N=C(N)NC(=N)N1CCOCC1 | 465 | 461 | 447 | 473 | 454 | 463 | 472 | 467 | 460
NC\1=N\C(=O)N(\C=C1F)[C@H]2C[C@H](O)[C@@H](CO)O2 | 280 | 360 | 239 | 285 | 279 | 264 | 270 | 359 | 201
Oc1c(Cl)cc(Cl)c2cccnc12 | 446 | 438 | 462 | 465 | 447 | 449 | 435 | 439 | 433
CC(C)c1c(C(=O)Nc2ccccc2)c(-c2ccccc2)c(-c2ccc(F)cc2)n1CC[C@@H](O)C[C@@H](O)CC(=O)[O-] | 428 | 431 | 412 | 448 | 400 | 409 | 440 | 439 | 447
Oc1ccc2ccccc2c1SSc1c(O)ccc2ccccc12 | 470 | 469 | 469 | 474 | 464 | 463 | 453 | 450 | 417
CCN(CC)CCCC(C)Nc1nc(C)cc(Nc2ccc3nc(C)cc(N)c3c2)n1 (stereo unspecified) | 464 | 470 | 468 | 461 | 464 | 469 | – | – | –
CC(C)(Sc1ccc(CCN(CCCCC2CCCCC2)C(=O)NC2CCCCC2)cc1)C(=O)O | 467 | 467 | 472 | 460 | 462 | 460 | 460 | 463 | 472
CCOC(=O)[C@H]1O[C@@H]1C(=O)N[C@@H](CC(C)C)C(=O)NCCC(C)C | 448 | 445 | 456 | 462 | 461 | 469 | 462 | 475 | 462
N#C/C(=C1/Nc2ccccc2S1)c1ccnc(OCc2ccc(CN3CCOCC3)cc2)n1 | 399 | 412 | 407 | 429 | 422 | 434 | 468 | 472 | 461
Cc1c(C(=O)c2cccc3ccccc23)c2cccc3c2n1[C@H](CN1CCOCC1)CO3 | 432 | 404 | 394 | 417 | 366 | 397 | 372 | 375 | 403
COC(=O)[C@H](c1ccccc1Cl)N1CCc2sccc2C1 | 357 | 328 | 343 | 414 | 416 | 427 | 449 | 440 | 432
Nc1ccc([S+](=O)([O-])Nc2ncccn2)cc1 | 467 | 444 | 452 | 464 | 452 | 471 | 460 | 462 | 437
O=[S+]([O-])(NCCNC/C=C/c1ccc(Br)cc1)c1cccc2cnccc12 | 452 | 446 | 425 | 462 | 460 | 458 | 377 | 418 | 354
Cc1cccc2c1CC[C@H](CN1CCC(c3c(Cl)cccc3Cl)CC1)C[C@@H]2O | 453 | 424 | 413 | 472 | 425 | 439 | 474 | 437 | 441
C1COC(NC(C2CC2)C2CC2)=N1 | 428 | 415 | 408 | 425 | 459 | 404 | – | – | –
CCC(C1CCC(C)C(O1)C(C)C(O)C(C)C(=O)C(CC)C2OC\3(O[C@]4(CC[C@@](C)(O4)C5CC[C@@](O)(CC)C(C)O5)C(O)\C=C3)C(C)CC2C)C([O-])=O (stereo partly specified) | – | – | – | 426 | 403 | 382 | – | – | –
CC(C)[N+]1(C)C2CCC1CC(OC(=O)C(CO)c1ccccc1)C2.O.[Br-] (stereo unspecified) | 423 | 457 | 450 | 383 | 427 | 417 | 449 | 423 | 422
CC(C)Cn1cnc2c(N)nc3ccccc3c21 | 450 | 466 | 448 | 442 | 451 | 463 | 459 | 452 | 455
COc1cc2ncnc(Nc3cccc(Cl)c3)c2cc1OC | 286 | 370 | 343 | 309 | 315 | 305 | 287 | 242 | 274
COc1cc(Cl)cn2c(-c3cccc(NC4CNC4)n3)cnc12 | 472 | 468 | 454 | 459 | 458 | 464 | 453 | 442 | 440
CCOC(=O)O[C@]1(C(=O)OCCl)CC[C@H]2[C@@H]3CCC4=CC(=O)C=C[C@]4(C)[C@H]3[C@@H](O)C[C@@]21C | 459 | 427 | 431 | 467 | 461 | 450 | 460 | 429 | 430
O=C1N\C=N/C2=C1C=N[NH]2 | 425 | 421 | 382 | 393 | 397 | 398 | 359 | 350 | 384
Cc1cnc(Nc2ccc(CN3CCOCC3)cc2)nc1Nc1cccc([S+](=O)([O-])NC(C)(C)C)c1 | – | – | – | 299 | 300 | 292 | – | – | –
C[N]1N=CC=C1C/2=C(\C)N(C(=O)C(=C2)/C(=O)NCC3=NC=C(C=C3)[S+](C)([O-])=O)C4=CC=CC(=C4)C(F)(F)F | – | – | – | 462 | 454 | 455 | 466 | 453 | 468
COc1ccc([S+](=O)([O-])Nc2cccnc2Nc2ccc(O)cc2)cc1 | 387 | 379 | 410 | 372 | 377 | 388 | – | – | –
